In patent US20140230091A1, “MODIFIED PLANTS WITH INCREASED OIL CONTENT” (BROOKHAVEN SCIENCE ASSOCIATES, LLC, priority 2011, published 2014):
Marks after values point to notes of the source that are not given here.

Legend:
ACCase = ACCase enzyme assay on crude cell extracts; format: biochemical, Brassica napus
Experimental: All chemicals were obtained from Sigma and radioisotopes from American Radiolabeled Chemicals. ACCase activity was measured as the acetyl-CoA dependent incorporation of ^14C—NaHC03 into acid and stable products. Crude cell extracts were prepared by grinding fresh cells in 3 volumes (w/v) of 50 mM Tris-Cl, pH 7.5, 100 mM KCl, 5 mM MgCl2, 1 mM DTT, 0.1% TritonX-100, 10% glycerol, and plant protease inhibitor cocktail (Sigma). Homogenate was gently mixed on ice for 10 min and then centrifuged for 5 min at 3000 g. Desalting of extracts was done with PD-10 columns (GE Life Sciences). […] Reactions were initiated by the addition of 5 μlL cell extract and were stopped by the addition of 15 μL 12 N HCL. The contents were dried completely at 55° C. and the solids were resuspended in 30 μL water and counted by liquid scintillation spectroscopy. Minus acetyl-CoA controls were always included. Assays went for 30 min, except when measuring the effects of metabolites (10 min). Metabolites were added to the reaction immediately after cell extract to preserve labile thioester bonds. FFA stock solutions were made in ethanol and acyl-CoAs were suspended in water.

B. napus cells = assay: Quantification of free fatty acid, acyl-ACP and acyl-CoA pools in cells; format: cell-based, Brassica napus; details: after three hours of Tween-80 feeding
Experimental: Free fatty acids were extracted from tissue by quenching ˜300 mg of frozen cells in 2 mL boiling isopropanol for 5 min. Once cooled, 2 mL of 0.9% NaCl was added and lipids were extracted twice with 4 mL of hexane. Neutral lipids were separated by TLC and free fatty acids were scraped, made into FAMEs, and analyzed by GC-FID or GC-MS as described above. Acyl-CoAs were extracted from ˜15 mg FW of cells and quantified as previously described (Larson and Graham 2001, Plant J, 25, 115-125). Acyl-ACPs were extracted and quantified as previously described (Kopka, Ohlrogge and Jaworski 1995, Anal Biochem, 224, 51-60) with the following modifications: 1) Internal standards used were 11:0-CoA (Sigma) and 17:0—ACP made from Spinach ACP as previously described (Broadwater and Fox 1999, Protein Expr Purif, 15, 314-326). 2) Fully dissolving TCA precipitated proteins required three extractions with MOPS buffer rather than just one.
1986 Plant Physiol, 82, 771-779). Free fatty acids can be activated by esterification to CoA or ACP before being deposited in cellular lipids. Steady state pools acyl-ACP and acyl-CoA as well as free fatty acids (FFA) were measured in cells fed Tween-80. After three hours of feeding, 18:1 FFA appeared where there was none detected in untreated cells (FIG. 9a). […] In a separate experiment designed to distinguish the incorporation of fatty acids from Tween from secondary effects of feedback inhibition, FFA and acylACPs were analyzed in cells fed ^13C-oleoyl-Tween. […] First, the in vivo concentrations of these intermediates were calculated based on the range of values in FIG. 9 and the water content of the cells. […] However, considering that acyl-ACPs are restricted to the plastid, the volume of which in developing embryos was determined to be 10% of the cell (Mansfield and Briarty 1992, Can J Bot, 70, 151-164), the estimate increased to 5-10 μM. […] Thioesterase activity was measured using the same conditions as the ACCase assay. […]

Which results are given for Tween-80?
ACCase activity (ACCase; crude extracts of cells fed 10 mM Tween-80 for three hours, mean of four repeats ± SD): 1.73 ± 0.10^a nmol min^−1 mg^−1; effect on ACCase activity (ACCase; included in assay of crude cell extract, FFA up to 10 μM): no effect; change in amount of 18:1-ACP and 18:1-CoA (B. napus cells): double in amount
